Laboratory results published in patent US7795305B2, “CDDO-compounds and combination therapies thereof” (Board of Regents, The University of Texas System, priority 2000, dated 2010).

Tests used:
U937/wt = assay: Viability of Bcl-2 transfectants; assay type: cell-based, human; conditions: 0.1 μM
Text: Cell lines. HL-60, KG-1, U937, and Jurkat cell lines were obtained from the American Type Culture Collection (Rockville, Md.). NB4 cells were kindly provided by Dr. M. Lanotte. HL-60-doxorubicin-resistant cells (HL-60-DOX) were also used. U937/Bcl-2 and its appropriate vector controls (U937/pCEP) were provided by Dr. S. Grant. U937 cells were transfected with WT, S70A, or S70E cDNA containing cytomegalovirus plasmids by electroporation (200 V, 975 μF capacitance) and selected and maintained in the medium plus 500 μg/mL G418 (Gibco BRL, Gaithersburg, Md.)
The effect of CDDO-Me on Bcl-2 phosphorylation was further investigated by performing metabolic labeling studies with ^32P-orthophosphoric acid. […] To further investigate mechanisms of inhibition of Bcl-2 phosphorylation that could may a role in CDDO-Me-induced cell death, the inventors selected U937 cells that were stably transfected with a serine 70→alanine, Bcl-2 mutant (S70A).

NB4 = assay: Growth inhibition of leukemic cell line; assay type: cell-based, human
Text: (§1) Suspension culture of leukemic cells.

KG-1 = assay: Growth inhibition of leukemic cell line; assay type: cell-based, human
Text: as §1

HL-60 cells [1] = assay: Mitochondrial membrane potential (JC-1, CMXRos); assay type: cell-based, human; conditions: for cells with low CMXRos staining / cells with low JC-1: 1 μM
Description: Cytofluorometric analysis of the Δψm. To evaluate the Δψm, cells were incubated with the cationic lipophilic dye […] (CMXRos; 150 nM; Molecular Probes, Inc., Eugene, Oreg.). CMXRos is incorporated into mitochondria driven by the […] and reacts with thiol residues to form covalent thiol ester bonds. CMXRos fluorescence was recorded by flow cytometry in the FL3 channel. Background values of the apoptosis of control cells cultured without the CDDO-Me or in DMSO-solvent control (<10% CMXRos-low) were subtracted from the values obtained under the experimental conditions.
In a series of experiments, cells were pretreated for 1 hour with 50 μM CyA or 50 μM BA prior to the addition of CDDO-Me. These agents prevent a reduction in Δψm induced by various agents that open mitochondrial permeability transition pores.
An early mitochondrial disruption has been observed in a number of different models of apoptosis. Changes in the cellular content of the cationic lipophilic fluorochrome CMXRos were determined by FACS analysis to measure loss of the mitochondrial membrane potential (Δψ) (Macho et al., 1996). […] Similarly, exposure of HL-60 to CDDO-Me (1 μM) for 2 and 4 hrs increased the number of cells with low JC-1 (57 and 60%) or CMXRos staining (46 and 57%), both assays measuring the decrease in Δψ. CDDO-Me-induced changes in the mitochondrial membrane potential of the cells preceded caspase activation and changes in the composition of the plasma membrane. In order to validate the role of the dissipation of Δψ in CDDO-treated cells the pharmacological inhibitors of permeability transition cyclosporin A (CyA) (Nicolli et al., 1996) (10 μM, Sandoz) and bongkrekic acid (BA) (Marchetti et al., 1996) (Calbiochem, Calif.) were used. […] The same effect was observed using BA (52% in CDDO-Me treated HL-60 cells, 23% when cells were pre-treated with BA).

HL-60 cells [2] = assay: Annexin V staining; assay type: cell-based, human; conditions: 0.1 μM CDDO-Me alone or combined with 1 μM ATRA
Description: Annexin V staining. Cells were washed in phosphate-buffered saline (PBS) and resuspended in 100 μl of binding buffer containing Annexin V (Roche Diagnostic Corporation, Indianapolis, Ind.). Cells were analyzed by flow cytometry after the addition of propidium iodide (PI). Annexin V binds to those cells that express phosphatidylserine on the outer layer of the cell membrane, and PI stains the cellular DNA of those cells with a compromised cell membrane. This allows for live cells (unstained with either fluorochrome) to be discriminated from apoptotic cells (stained only with annexin V) and necrotic cells (stained with both annexin and PI).
CDDO-Me. CDDO-Me and retinoids synergistically decrease viability and induce differentiation in leukemic cell lines. The inventors tested the Effect of CDDO-Me/ATRA combinations in different leukemic cell lines. […] This was confirmed in HL-60 cells by annexin V staining (17.9 vs 30% positive cells when 0.1 μM of CDDO-Me was combined with 1 μM ATRA). In primary AML, ATRA enhanced CDDO-Me-induced apoptosis in 3/8 samples tested (an example of subG1 flow cytometry in AML sample shown in FIG. 32).

[3] = tested on: Bcl-2 protein in U937 cells; assay: Bcl-2 protein by quantitative flow cytometry; assay type: cell-based, human; conditions: 1 μM, 72 hrs
Description: The involvement of the mitochondrial apoptotic pathway in CDDO mediated apoptosis was analyzed in U937 cells.

[4] = tested on: RXR-expressing HL-60 cells; assay: Acetylation of nuclear histones, Western blot; assay type: cell-based, human; conditions: alone or with RXR-specific ligand LG-100268
Text: PPARγ must form a heterodimer with RXR to bind DNA and activate transcription (Nolte et al., 1998). RXR-specific ligands markedly induce the binding of the co-activator SRC-1 to PPARγ-RXR heterodimers ([…] et al., 1998), and assembly of this complex results in a large increase in transcriptional activity. […] One method to increase the effects of PPARγ ligands contemplated herein is by combination with ligands specific for RXR. […] TSA, the histone deacetylase inhibitor, served as a positive control. Combination of the PPARγ ligand CDDO with TSA synergistically induce differentiation in HL-60 cells and the present inventors contemplate that this is a result of transcriptional activation of target genes via histone acetylation.

PPARα receptor = PPARα receptor (Homo sapiens, UniProt Q07869); assay: Transactivation of PPARα; assay type: cell-based
Chain of PPARα receptor (Q07869 whole entry): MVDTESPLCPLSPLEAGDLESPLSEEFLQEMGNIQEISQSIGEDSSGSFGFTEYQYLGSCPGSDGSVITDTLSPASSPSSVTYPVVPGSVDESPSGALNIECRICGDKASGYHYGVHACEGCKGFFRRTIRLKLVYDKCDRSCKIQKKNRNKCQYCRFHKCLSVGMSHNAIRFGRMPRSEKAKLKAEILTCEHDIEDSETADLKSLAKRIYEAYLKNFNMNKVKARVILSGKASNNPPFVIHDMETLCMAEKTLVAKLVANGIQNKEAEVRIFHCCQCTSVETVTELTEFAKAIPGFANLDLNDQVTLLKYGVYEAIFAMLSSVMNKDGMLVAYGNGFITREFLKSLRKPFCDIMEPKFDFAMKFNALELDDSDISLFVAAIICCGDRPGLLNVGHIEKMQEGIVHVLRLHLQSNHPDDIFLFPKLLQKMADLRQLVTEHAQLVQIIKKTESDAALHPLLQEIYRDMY

SMILES | viable cells (U937/wt) | IC50 (NB4) | IC50 (KG-1) | cells with low CMXRos staining (HL-60 cells [1]; 2 hrs) | cells with low JC-1 (HL-60 cells [1]; 2 hrs) | cells with low CMXRos staining (HL-60 cells [1]; 4 hrs) | cells with low JC-1 (HL-60 cells [1]; 4 hrs) | cells with Δψ loss (HL-60 cells [1]; CDDO-Me alone) | cells with Δψ loss (HL-60 cells [1]; cells pre-treated with bongkrekic acid (BA)) | annexin V positive cells (HL-60 cells [2]) | decrease in Bcl-2 protein [3] | acetylation of histones H3 and H4 [4] | transactivation of PPARα receptor (PPARα receptor)
COC(=O)[C@]12CCC(C)(C)C[C@H]1[C@H]1C(=O)C=C3[C@@]4(C)C=C(C#N)C(=O)C(C)(C)[C@@H]4CC[C@@]3(C)[C@]1(C)CC2 [CDDO-Me] | 30% | 270 nM | 400 nM | 46% | 57% | 57% | 60% | 52% | 23% | 17.9% | – | – | –
CC1(C)CCC2(C(=O)O)CCC3(C)C(C(=O)C=C4C5(C)C=C(C#N)C(=O)C(C)(C)C5CCC43C)C2C1 (stereo not shown) [CDDO, 2-cyano-3,12-dioxoolen-1,9-dien-28-oic acid] | – | – | – | – | – | – | – | – | – | – | > 40% | induction of acetylation of histones H3 and H4 | did not transactivate
